Experimental data reported in PubChem BioAssay AID1259407 (Chemical Carcinogenesis Research Information System (CCRIS), 2018).
The source made the active and inactive calls. The rule behind the calls is not given here.

Tested on: CCRIS mutagenicity, Ames/micronucleus/aberration tests
Assay: CCRIS mutagenicity studies

In the case of `O=C1NCCN1c1ncc([N+](=O)[O-])s1`, the mutagenic call (Test System: AMES SALMONELLA TYPHIMURIUM, Strain/Indicator: TA96(NR), Metabolic Activation: NONE, Method: STANDARD PLATE) is reported as “inactive; negative”, the mutagenic call (Test System: AMES SALMONELLA TYPHIMURIUM, Strain/Indicator: TA96(NRB), Metabolic Activation: NONE, Method: PREINCUBATION) is reported as “active; positive” and the mutagenic call (Test System: AMES SALMONELLA TYPHIMURIUM, Strain/Indicator: TA96(NRB), Metabolic Activation: RAT, LIVER, S-9, AROCLOR 1254, Method: PREINCUBATION) is reported as “active; positive”. The mutagenic call (Test System: AMES SALMONELLA TYPHIMURIUM, Strain/Indicator: TA96(NRC), Metabolic Activation: NONE, Method: PREINCUBATION) was “inactive; negative”, the mutagenic call (Test System: AMES SALMONELLA TYPHIMURIUM, Strain/Indicator: TA96(NRC), Metabolic Activation: RAT, LIVER, S-9, AROCLOR 1254, Method: PREINCUBATION) was “inactive; negative” and the mutagenic call (Test System: AMES SALMONELLA TYPHIMURIUM, Strain/Indicator: TA96, Metabolic Activation: NONE, Method: PREINCUBATION) was “active; positive”. For the same compound, the mutagenic call (Test System: AMES SALMONELLA TYPHIMURIUM, Strain/Indicator: TA96, Metabolic Activation: NONE, Method: STANDARD PLATE) was “active; positive”, the mutagenic call (Test System: AMES SALMONELLA TYPHIMURIUM, Strain/Indicator: TA96, Metabolic Activation: RAT, LIVER, S-9, AROCLOR 1254, Method: PREINCUBATION) was “active; positive” and the mutagenic call (Test System: AMES SALMONELLA TYPHIMURIUM, Strain/Indicator: TA97, Metabolic Activation: NONE, Method: PREINCUBATION) was “active; positive”. For the same compound, the mutagenic call (Test System: AMES SALMONELLA TYPHIMURIUM, Strain/Indicator: TA97, Metabolic Activation: NONE, Method: STANDARD PLATE) was “active; positive”, the mutagenic call (Test System: AMES SALMONELLA TYPHIMURIUM, Strain/Indicator: TA97, Metabolic Activation: RAT, LIVER, S-9, AROCLOR 1254, Method: PREINCUBATION) was “active; positive” and the mutagenic call (Test System: AMES SALMONELLA TYPHIMURIUM, Strain/Indicator: TA98(NR), Metabolic Activation: NONE, Method: PREINCUBATION) was “active; positive”. For the same compound, the mutagenic call (Test System: AMES SALMONELLA TYPHIMURIUM, Strain/Indicator: TA98(NR), Metabolic Activation: NONE, Method: STANDARD PLATE) was “inactive; negative”, the mutagenic call (Test System: AMES SALMONELLA TYPHIMURIUM, Strain/Indicator: TA98(NR), Metabolic Activation: RAT, LIVER, S-9, AROCLOR 1254, Method: PREINCUBATION) was “active; positive” and the mutagenic call (Test System: AMES SALMONELLA TYPHIMURIUM, Strain/Indicator: TA98, Metabolic Activation: NONE, Method: PREINCUBATION) was “active; positive”. The mutagenic call (Test System: AMES SALMONELLA TYPHIMURIUM, Strain/Indicator: TA98, Metabolic Activation: NONE, Method: STANDARD PLATE) was “active; positive”, the mutagenic call (Test System: AMES SALMONELLA TYPHIMURIUM, Strain/Indicator: TA98, Metabolic Activation: RAT, LIVER, S-9, AROCLOR 1254, Method: PREINCUBATION) was “active; positive” and the mutagenic call (Test System: AMES SALMONELLA TYPHIMURIUM, Strain/Indicator: TA98, Metabolic Activation: RAT, LIVER, S-9, AROCLOR 1254 OR PHENOBARBITOL, Method: STANDARD PLATE) was “active; positive”. For the same compound, the mutagenic call (Test System: AMES SALMONELLA TYPHIMURIUM, Strain/Indicator: TA98, Metabolic Activation: RAT, LIVER, S-9, KC500 OR PHENOBARBITAL, Method: LIQUID SUSPENSION) was “active; positive”, the mutagenic call (Test System: AMES SALMONELLA TYPHIMURIUM, Strain/Indicator: TA100(NR), Metabolic Activation: NONE, Method: PREINCUBATION) was “active; positive” and the mutagenic call (Test System: AMES SALMONELLA TYPHIMURIUM, Strain/Indicator: TA100(NR), Metabolic Activation: NONE, Method: STANDARD PLATE) was “inactive; negative”. The mutagenic call (Test System: AMES SALMONELLA TYPHIMURIUM, Strain/Indicator: TA100(NR), Metabolic Activation: RAT, LIVER, S-9, AROCLOR 1254, Method: PREINCUBATION) was “active; positive”, the mutagenic call (Test System: AMES SALMONELLA TYPHIMURIUM, Strain/Indicator: TA100, Metabolic Activation: NONE, Method: PREINCUBATION) was “active; positive” and the mutagenic call (Test System: AMES SALMONELLA TYPHIMURIUM, Strain/Indicator: TA100, Metabolic Activation: RAT, LIVER, S-9, AROCLOR 1254, Method: PREINCUBATION) was “active; positive”. For the same compound, the mutagenic call (Test System: AMES SALMONELLA TYPHIMURIUM, Strain/Indicator: TA100, Metabolic Activation: RAT, LIVER, S-9, AROCLOR 1254 OR PHENOBARBITOL, Method: STANDARD PLATE) was “active; positive”, the mutagenic call (Test System: AMES SALMONELLA TYPHIMURIUM, Strain/Indicator: TA100, Metabolic Activation: RAT, LIVER, S-9, KC500 OR PHENOBARBITAL, Method: LIQUID SUSPENSION) was “active; positive” and the mutagenic call (Test System: AMES SALMONELLA TYPHIMURIUM, Strain/Indicator: TA102(NRD), Metabolic Activation: NONE, Method: PREINCUBATION) was “active; positive”. The mutagenic call (Test System: AMES SALMONELLA TYPHIMURIUM, Strain/Indicator: TA102(NRD), Metabolic Activation: RAT, LIVER, S-9, AROCLOR 1254, Method: PREINCUBATION) was “active; positive”, the mutagenic call (Test System: AMES SALMONELLA TYPHIMURIUM, Strain/Indicator: TA102, Metabolic Activation: NONE, Method: PREINCUBATION) was “active; positive” and the mutagenic call (Test System: AMES SALMONELLA TYPHIMURIUM, Strain/Indicator: TA102, Metabolic Activation: NONE, Method: STANDARD PLATE) was “active; positive”. The mutagenic call (Test System: AMES SALMONELLA TYPHIMURIUM, Strain/Indicator: TA102, Metabolic Activation: RAT, LIVER, S-9, AROCLOR 1254, Method: PREINCUBATION) was “active; positive”, the mutagenic call (Test System: AMES SALMONELLA TYPHIMURIUM, Strain/Indicator: TA104, Metabolic Activation: NONE, Method: STANDARD PLATE) was “inactive; negative” and the mutagenic call (Test System: AMES SALMONELLA TYPHIMURIUM, Strain/Indicator: TA1535, Metabolic Activation: NONE, Method: STANDARD PLATE) was “inactive; negative”. The mutagenic call (Test System: AMES SALMONELLA TYPHIMURIUM, Strain/Indicator: TA1535, Metabolic Activation: RAT, LIVER, S-9, AROCLOR 1254 OR PHENOBARBITOL, Method: STANDARD PLATE) was “inactive; negative”, the mutagenic call (Test System: AMES SALMONELLA TYPHIMURIUM, Strain/Indicator: TA1537, Metabolic Activation: NONE, Method: STANDARD PLATE) was “inactive; negative” and the mutagenic call (Test System: AMES SALMONELLA TYPHIMURIUM, Strain/Indicator: TA1537, Metabolic Activation: RAT, LIVER, S-9, AROCLOR 1254 OR PHENOBARBITOL, Method: STANDARD PLATE) was “inactive; negative”. For the same compound, the mutagenic call (Test System: AMES SALMONELLA TYPHIMURIUM, Strain/Indicator: TA1538, Metabolic Activation: NONE, Method: STANDARD PLATE) was “active; positive”, the mutagenic call (Test System: AMES SALMONELLA TYPHIMURIUM, Strain/Indicator: TA1538, Metabolic Activation: RAT, LIVER, S-9, AROCLOR 1254 OR PHENOBARBITOL, Method: STANDARD PLATE) was “active; positive” and the mutagenic call (Test System: E. COLI, Strain/Indicator: WP2, Metabolic Activation: NONE, Method: SPOT) was “active; positive”. The mutagenic call (Test System: E. COLI, Strain/Indicator: WP2 UVRA, Metabolic Activation: NONE, Method: SPOT) was “active; positive” and the mutagenic call (Test System: E. COLI, Strain/Indicator: WP2 UVRA, Metabolic Activation: NONE, Method: STANDARD PLATE) was “active; positive”.
